Source: BindingDB's records for doi:10.7270/Q24B305P (D3R/Abbott, 2015)
pKi: −log10 of the molar value.

Each compound was assayed against T1, Urokinase-type plasminogen activator [179-424,C299A,N323Q] (Human, UniProt P00749, C299A/N323Q) (assay: Photometric_Method1).
T1 construct: 179-424

| pKi | Structure (SMILES) |
| --- | --- |
| < 4.52 | Nc1cc2ccccc2cn1 |
| 5.23 | N=C(N)c1ccc2ccccc2c1 [Naphthalene-2-carboxamidine] |
| < 4.30 | Nc1cnc2ccccc2n1 [uPa_1] |
| 5.10 | COc1cc2ccc(C(=N)N)cc2c(OC)c1OC [uPa_2] |
| 5.14 | CC(C)Oc1ccc2cc(C(=N)N)ccc2c1 [uPa_5] |
| 5.35 | COc1ccc2ccc(C(=N)N)cc2c1-c1cnn(C(C)C)c1 [uPa_11] |
| 5.06 | N=C(N)c1ccc2cc(NS(=O)(=O)c3ccccc3)ccc2c1 [uPa_14] |
| < 4.40 | N#CC(CCOc1cccc2ccc(N)nc12)(c1ccccc1)c1ccccc1 [uPa_16] |
| 9.05 | COC(=O)Nc1cc(C(=O)Nc2ccc(CN)cc2)cc2ccc(C(=N)N)cc12 [uPa_17] |
| 6.11 | CS(=O)(=O)n1cc(-c2cc(C(=O)Nc3ccccc3)cc3ccc(C(=N)N)cc23)cn1 [uPa_20] |
| 5.11 | N=C(N)c1ccc2cc(C(=O)Nc3ccccc3)cc(-c3ncccn3)c2c1 [uPa_21] |
| 5.45 | N=C(N)NC(=O)c1nc(Cl)c(NCc2cc(Cl)cc(Cl)c2)nc1N [uPa_22] |
| < 3.98 | Nc1ccc2nc(N)ccc2c1 [uPa_23] |
| < 4.30 | COC(=O)Nc1ccc2nc(N)ccc2c1 [uPa_24] |
| 6.18 | N=C(N)c1ccc2cc(C#Cc3cccc(OC4CCCC4)c3)ccc2c1 [uPa_25] |
| 7.80 | CC(C)C1=NCCc2ccc(NC(=O)c3cc(Br)c4cc(C(=N)N)ccc4c3)cc21 [uPa_26] |
| < 4.30 | COC(=O)Nc1ccc2nc(C(=N)N)ccc2c1 [uPa_27] |
| 7.48 | COc1cc(NC(=O)c2ccc3cc(C(=N)N)ccc3c2)cc(OC(C)C)c1 [uPa_28] |

| pKi | Structure (SMILES) |
| --- | --- |
| 6.54 | N=C(N)c1ccc2cc(C(=O)Nc3ccc4c(c3)C(c3ccccc3)=NCC4)ccc2c1 [uPa_29] |
| < 5.00 | C=CCNC(=O)Nc1cccc2ccc(N)nc12 [uPa_30] |
| 7.18 | N=C(N)c1ccc2cc(C(=O)Nc3ccc4c(c3)C(C3CCCCC3)=NCC4)ccc2c1 [uPa_31] |
| 5.51 | N=C(N)c1ccc2cc(/C=C/CCc3cccnc3)cc(Br)c2c1 [uPa_32] |
| < 4.00 | C#CCN(C)C(=O)c1ccc2ccc(N)nc2c1 [uPa_33] |
| < 4.00 | CC(C)CN(CC(C)C)C(=O)c1ccc2ccc(N)nc2c1 [uPa_34] |
| < 4.00 | CN(CC#N)C(=O)c1ccc2ccc(N)nc2c1 [uPa_35] |
| 7.74 | COC(=O)Nc1cc(C(=O)Nc2ccccc2)cc2ccc(C(=N)N)cc12 [uPa_36] |
| 5.83 | CS(=O)(=O)Nc1cc(CCc2ccccc2)cc2ccc(C(=N)N)cc12 [uPa_37] |
| 6.11 | CCOc1cc(OCC)c(OCC)cc1/C=C/c1cc(Br)c2cc(C(=N)N)ccc2c1 [uPa_38] |
| 7.68 | COC/C=C/c1cc(C2CC2c2ccc3c(c2)C(C(C)C)N(C)CC3)cc2ccc(C(=N)N)cc12 (stereo not given) [uPa_39] |
| 6.65 | CN1CCc2ccc(/C=C/c3ccc4cc(C(=N)N)ccc4c3)cc2C1C1CCCCC1 (stereo not given) [uPa_40] |
| 7.38 | CN1CCc2ccc(C3CC3c3ccc4cc(C(=N)N)ccc4c3)cc2C1C1CCC1 (stereo not given) [uPa_41] |
| 7.03 | COc1cc(C2CC2c2ccc3c(c2)C(C(C)C)N(C)CC3)cc2ccc(C(=N)N)cc12 (stereo not given) [uPa_42] |
| 8.05 | CC(C)C1c2cc(C3CC3c3cc(/C=C/C4CC4)c4cc(C(=N)N)ccc4c3)ccc2CCN1C (stereo not given) [uPa_43] |
| 5.90 | CN1CCc2ccc(C3CC3c3ccc4cc(C(=N)N)ccc4c3)cc2C1c1cccnc1 (stereo not given) [uPa_44] |
| < 4.00 | N=C(N)NC(=O)c1ccc(Cl)c(S(N)(=O)=O)c1 [uPa_45] |
